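Following 48 hours of exposure in 96-well plates, responses at five concentrations were used to interpolate endpoints linearly. The concentration for 50% growth inhibition is given as GI50. TGI: total growth inhibition.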
Columns and labels:
Experiment in all cases: NCI-60 cell line screen, 48 h
SW-620 colon = system: SW-620 colon
MCF7 breast = system: MCF7 breast
SNB-75 CNS = system: SNB-75 CNS
OVCAR-5 ovarian = system: OVCAR-5 ovarian
CAKI-1 renal = system: CAKI-1 renal
PC-3 prostate = system: PC-3 prostate
HCT-116 colon = system: HCT-116 colon
HCT-15 colon = system: HCT-15 colon
KM12 colon = system: KM12 colon
SR leukemia = system: SR leukemia

SMILES	GI50 (SW-620 colon) [nM]	TGI (SW-620 colon) [µM]	GI50 (MCF7 breast) [nM]	TGI (MCF7 breast) [µM]	GI50 (SNB-75 CNS) [nM]	TGI (SNB-75 CNS) [µM]	GI50 (OVCAR-5 ovarian) [µM]	TGI (OVCAR-5 ovarian) [µM]	GI50 (CAKI-1 renal) [µM]	TGI (CAKI-1 renal) [µM]	GI50 (PC-3 prostate) [nM]	TGI (PC-3 prostate) [µM]	GI50 (HCT-116 colon) [nM]	TGI (HCT-116 colon) [µM]	GI50 (HCT-15 colon) [nM]	TGI (HCT-15 colon) [µM]	GI50 (KM12 colon) [nM]	TGI (KM12 colon) [µM]	TGI (SR leukemia) [µM]	GI50 (SR leukemia) [nM]
COc1cc2c(c(OC)c1OC)-c1ccc(NNC(=S)N(Cc3cccc(C[N+](Cc4cccc(CNC56CC7CC(CC(C7)C5)C6)c4)(Cc4cccc(CNC56CC7CC(CC(C7)C5)C6)c4)Cc4cccc(CN(C(=S)NNc5ccc6c(cc5=O)[C@@H](NC(C)=O)CCc5cc(OC)c(OC)c(OC)c5-6)C56CC7CC(CC(C7)C5)C6)c4)c3)C34CC5CC(CC(C5)C3)C4)c(=O)cc1[C@@H](NC(C)=O)CC2 (some centres undefined)	814	2.06	862	3.44	1400	6.68	1.17	5.03	3.2	7.37	1450	5.64	896	3.07	1560	5.96	1080	4.52	–	–
CC1CCC2(NC1)OC1CC3[C@@H]4CC=C5C=CCC[C@]5(C)C4CC[C@]3(C)C1C2C (some centres undefined)	–	41.2	–	–	–	80.6	–	50	–	> 100	–	–	–	32.7	–	48.8	–	44	–	–
c1cc(C2CCCCC2)ccc1OCCCCCCN1CCNCC1	1780	3.4	1630	3.32	1830	4.5	1.75	3.5	2.01	4.54	2150	5.97	–	–	1640	3.25	1980	3.55	–	–
CC(=O)O[C@H]1CC[C@@]2(C)C(CC[C@]3(C)C2CC[C@]2(C)Oc4c(C)cc(O)cc4C[C@@H]23)C1(C)C (some centres undefined)	–	5.71	–	–	–	8.12	–	23.6	–	21.8	–	–	–	18.1	–	14.9	–	22.6	7.12	–
ON(CCc1ccncc1)Cc1ccccc1	–	> 100	–	> 100	–	> 100	–	> 100	–	> 100	–	–	–	> 100	–	> 100	–	> 100	> 100	–
Cc1[nH]c(C(=O)Nc2ccc(C(=O)N3CCNCC3)cc2OC(C)C)c(Cl)c1Cl	1900	3.59	1800	3.59	3310	14.1	1.79	4.04	3.61	15.1	2020	5.44	1850	3.41	1820	3.43	1840	3.46	–	–
O=c1[nH]c(=O)n(C2CC(O)C(CO)O2)cc1C(OCC(F)(F)F)OCC(F)(F)F (centres undefined)	–	> 100	–	–	–	> 100	–	> 100	–	> 100	–	–	–	–	–	–	–	> 100	–	–
OCCN(CCO)c1cccc(N(CCO)CCO)c1	–	> 100	–	–	–	> 100	–	–	–	> 100	–	–	–	> 100	–	> 100	–	> 100	> 100	–
CS(=O)(=O)N(CCC#N)c1ccc(/C=N/NC(=O)CC(=O)Nc2cccc(Cl)c2)cc1	–	> 100	–	–	–	> 100	–	> 100	–	> 100	–	–	–	> 100	–	> 100	–	> 100	–	–
Cc1cc2c(cc1C)[n+](=O)c(C(=O)/C=C/c1ccc(Cl)cc1)c(C)n2[O-]	–	> 100	–	–	–	45.5	–	> 100	–	> 100	–	–	–	–	–	> 100	–	> 100	–	–
O=C(O)CNS(=O)(=O)c1ccc(NC(=O)c2ccc(F)cc2)cc1	–	> 100	–	–	–	> 100	–	> 100	–	> 100	–	–	–	–	–	> 100	–	> 100	–	–
C=C1C(=O)O[C@H]2[C@H]1CC/C(CNC(=O)/C=C/c1cccc(OC)c1)=C\CC[C@@]1(C)O[C@@H]21	958	2.33	–	–	1820	8.09	2.05	5.36	1.31	2.68	1800	3.86	545	1.94	1050	2.54	5800	20.5	10.5	537
N#CCCN(CCC#N)c1ccc(/C=C2\N=C(COc3ccc(Cl)cc3Cl)OC2=O)cc1	–	> 100	–	–	–	> 100	–	> 100	–	> 100	–	–	–	> 100	–	> 100	–	> 100	–	–
O=c1[nH]c(-c2ccccc2)nc2ccc(Cl)cc12	–	> 100	–	–	–	–	–	> 100	–	> 100	–	–	–	> 100	–	> 100	–	> 100	> 100	–
Cc1ccc2c[c]1[Hg][CH2]COS2(=O)=O	17800	31.6	17900	39.4	> 100000	> 100	18.7	37.4	–	–	18300	32.4	16600	30.2	16400	30	–	–	–	–
Cc1cc(=O)c2cc(N=Cc3ccc([N+](=O)[O-])o3)ccc2o1	–	> 100	–	> 100	–	> 100	–	> 100	–	> 100	–	–	–	> 100	–	> 100	–	> 100	> 100	–
CN(C)C(=S)NN=C(c1ccccn1)c1ccccn1	< 11.5	> 40.2	< 10	> 47.4	14300	> 81.6	0.045	27.4	< 0.0127	6.59	< 12.3	> 43.8	< 10	11	< 12	25.5	46	21.6	–	–
COC(=O)Nc1nc2ccc(Oc3ccc(NC(=O)Nc4cccc(Br)c4)cc3)cc2[nH]1	1480	17.6	220	3.77	781	6.13	> 11.9	> 25	8.74	> 25	1850	> 12.7	1320	> 12.6	2300	> 25	119	3.97	–	–
COc1cc2c(cc1OCCCOC1=C=C=C(c3ccc4c(c3)c3cc(-c5ccc(OCCCOc6cc7c(cc6OC)C(=O)N6CCC[C@H]6C=N7)cc5)ccc3n4S(=O)(=O)c3ccc(C)cc3)C=C1)N=C[C@@H]1CCCN1C2=O	1160	6.33	1230	11.3	1030	5.33	5.87	17.8	1.29	6.21	1270	> 28.9	1620	7.05	7000	20.3	1460	4.3	–	–
O=C(CC1(O)C(=O)Nc2ccc(Br)cc21)c1ccc(Cl)cc1 (centres undefined)	–	> 100	–	–	–	77.7	–	> 100	–	–	–	–	–	> 100	–	> 100	–	> 100	–	–

SMILES	GI50 (SW-620 colon) [nM]	TGI (SW-620 colon) [µM]	GI50 (MCF7 breast) [nM]	TGI (MCF7 breast) [µM]	GI50 (SNB-75 CNS) [nM]	TGI (SNB-75 CNS) [µM]	GI50 (OVCAR-5 ovarian) [µM]	TGI (OVCAR-5 ovarian) [µM]	GI50 (CAKI-1 renal) [µM]	TGI (CAKI-1 renal) [µM]	GI50 (PC-3 prostate) [nM]	TGI (PC-3 prostate) [µM]	GI50 (HCT-116 colon) [nM]	TGI (HCT-116 colon) [µM]	GI50 (HCT-15 colon) [nM]	TGI (HCT-15 colon) [µM]	GI50 (KM12 colon) [nM]	TGI (KM12 colon) [µM]	TGI (SR leukemia) [µM]	GI50 (SR leukemia) [nM]
NC1CCCCC1N.O=C([O-])P(=O)([O-])[O-].[Na+].[Pt+4] (centres undefined)	28800	> 100	–	–	> 100000	> 100	> 100	> 100	–	–	–	–	47600	> 100	–	–	> 100000	> 100	–	–
C[C@]12CC/C(=N\N)C[C@@H]1CC[C@@H]1[C@@H]2CC[C@]2(C)/C(=N/N)CC[C@@H]12	> 100000	> 100	> 100000	> 100	> 100000	> 100	> 100	> 100	> 100	> 100	> 100000	> 100	> 100000	> 100	> 100000	> 100	> 100000	> 100	–	–
O=S(=O)([O-])[O-].[Cl-].[NH2-].[NH2-].[NH2-].[NH2-].[Ru+3].c1ccc(-c2cccnc2)cc1	> 100000	> 100	–	–	88900	> 100	> 100	> 100	> 100	> 100	–	–	> 100000	> 100	> 100000	> 100	> 100000	> 100	> 100	> 100000
CCNc1c(C(=O)N(CC)CC)c(=O)[nH]c2ncccc12	–	> 100	–	–	–	> 100	–	> 100	–	> 100	–	–	–	> 100	–	> 100	–	> 100	–	–
CS(=O)(=O)OCCN1CCN(C(=O)c2cccc3c(Nc4ccc(S(N)(=O)=O)cc4)c4ccccc4nc23)CC1	–	> 55.8	–	–	–	> 100	–	> 100	–	> 100	–	–	–	> 57.7	–	> 60.6	–	> 100	> 100	–
CCN(CC)c1ccc(N=C2C=CC(=O)c3ncccc32)c(C)c1	–	7.12	–	–	–	28.9	–	24.4	–	23.4	–	–	–	6	–	10.8	–	27.1	6.51	–
CC(C)COC(=O)N1N=NC2C3OC(CC3=O)C21 (centres undefined)	–	> 100	–	–	–	> 100	–	> 100	–	> 100	–	–	–	> 100	–	> 100	–	> 100	> 100	–
Cn1ccnc1C(c1nccn1C)C(C)(C)[N+](=O)[O-]	–	> 100	–	–	–	> 100	–	–	–	> 100	–	–	–	> 100	–	> 100	–	> 100	> 100	–
CSc1ccc(-c2cc(-c3ccc(NC(=O)CCCN4CCCC4)cc3)nc(-c3ccc(NC(=O)CCCN4CCCC4)cc3)c2)cc1	1790	3.29	–	–	1640	4.99	2.28	4.86	4.94	21.3	1800	3.4	–	–	–	–	1870	3.3	–	–
CN(C)c1ccc(/C=C/C(=O)C(C)(C)C)cc1Br	–	60.2	–	–	–	70.3	–	> 100	–	91.9	–	–	–	38.1	–	48.6	–	56.1	–	–
O=C1CCC2CCc3cccc4oc1c2c34 (centres undefined)	–	> 100	–	–	–	> 100	–	–	–	> 100	–	–	–	> 100	–	> 100	–	–	–	–
NC(N)=N/N=C/c1c(-c2cccs2)nc2sccn12	12800	28.2	–	–	5660	17.1	17.5	31.3	2.57	16	11100	23.1	4230	17.7	15400	28.8	8240	20.7	–	–
COc1ccccc1/C=C1\CCC(CNc2ccc(Cl)cc2)C1=O (centres undefined)	–	20	–	–	–	29.9	–	23.6	–	13.6	–	–	–	19.1	–	7.31	–	10	26.5	–
CCN(CC)CC(=O)/C=C/c1ccc(C)cc1	–	30.3	–	–	–	55.1	–	> 100	–	31.7	–	–	–	32.4	–	46	–	39	78.8	–
CC1=C(C)CC2(SC1)C(=O)c1ccccc1C2=O	–	> 100	–	–	–	> 100	–	> 100	–	> 100	–	–	–	> 100	–	> 100	–	> 100	> 100	–
OCCCCC#Cc1ccccc1C#Cc1ccccc1F	22200	44.4	42100	> 100	> 100000	> 100	16.2	33.3	24.2	51.4	20000	48.2	16200	29.9	18000	32.5	18800	37.7	–	–
Oc1ccc2occ3c2c1CCC3	–	> 100	–	–	–	> 100	–	–	–	> 100	–	–	–	> 100	–	> 100	–	–	–	–
C=CCC12CCC(=O)C=C1CCC1(C2)OCCO1 (centres undefined)	–	> 100	–	–	–	> 100	–	–	–	> 100	–	–	–	> 100	–	> 100	–	> 100	> 100	–
Cc1ccc(C(=O)O/N=C2/CCCCC2CN(C)C)cc1 (centres undefined)	–	–	–	–	–	> 100	–	> 100	–	> 100	–	–	–	> 100	–	> 100	–	> 100	> 100	–
CC1=C(SCc2ccccc2)C(=O)c2ccccc2C1=O	–	> 100	–	40.6	–	26.5	–	71.7	–	26.2	–	37.3	–	18.2	–	43.5	–	35.7	–	–
